# Laboratory results reported in PubChem BioAssay (NCI).
# Several values for one entry are separate records, joined by “and”; a condition that tells them apart may be missing. Equal entries are not always repeated.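 In this assay, cells in 96-well plates receive the compound at five concentrations for 48 hours. Endpoints are linearly interpolated between the surrounding concentrations. The concentration for 50% growth inhibition is given as GI50. TGI denotes the concentration required for complete inhibition of growth.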
# Legend:
# Test in all cases: inhibition of tumour cell growth, NCI panel, 48 h
# HT29 colon = system: HT29 colon
# COLO 205 colon = system: COLO 205 colon
# SK-OV-3 ovarian = system: SK-OV-3 ovarian
# UACC-62 melanoma = system: UACC-62 melanoma
# KM12 colon = system: KM12 colon
# MALME-3M melanoma = system: MALME-3M melanoma
# NCI-H522 lung = system: NCI-H522 lung
# OVCAR-8 ovarian = system: OVCAR-8 ovarian
# T-47D breast = system: T-47D breast
# SF-539 CNS = system: SF-539 CNS
SMILES,GI50 (HT29 colon),TGI (HT29 colon),GI50 (COLO 205 colon),TGI (COLO 205 colon),GI50 (SK-OV-3 ovarian),TGI (SK-OV-3 ovarian),GI50 (UACC-62 melanoma),TGI (UACC-62 melanoma),GI50 (KM12 colon),TGI (KM12 colon),GI50 (MALME-3M melanoma),TGI (MALME-3M melanoma),GI50 (NCI-H522 lung),TGI (NCI-H522 lung),GI50 (OVCAR-8 ovarian),TGI (OVCAR-8 ovarian),GI50 (T-47D breast),TGI (T-47D breast) [µM],GI50 (SF-539 CNS),TGI (SF-539 CNS)
CCOc1ccccc1C(=O)N1CCN(c2cc(Cl)cc(Cl)c2)CC1,0.0316 µM,2.29 µM,0.0287 µM,0.0853 µM,0.258 µM,9.14 µM,0.0203 µM,16 µM,0.0361 µM,13.6 µM,0.624 µM,22.9 µM,0.0142 µM,0.358 µM,0.0371 µM,14.2 µM,0.393 µM,29.9,0.0252 µM,0.412 µM
O=S(=O)(c1ccc(Cl)cc1)C(Cl)(Cl)Cl,2.85 µM,22.5 µM,3.38 µM,> 53.4 µM,14 µM,67 µM,4.75 µM,25 µM,3.27 µM,13.9 µM,0.244 µM,3.89 µM,2.95 µM,21 µM,3.5 µM,35.5 µM,1.39 µM,> 33.1,3.17 µM,29 µM
O=C1OCC2=C1C(c1ccccc1)c1cc3c(cc1N2)OCO3 (centres undefined),0.0351 µM,> 59 µM,0.0261 µM,0.0703 µM,0.0308 µM,1.39 µM,0.0328 µM,> 100 µM,< 0.0167 µM,–,14.1 µM,> 100 µM,< 0.011 µM,1.56 µM,0.0437 µM,> 48.2 µM,5.14 µM,> 100,0.0318 µM,9.3 µM
COc1cc2c(cc1C1COc3cc4occc4cc3C1=O)OCO2 (centres undefined),–,> 100 µM,–,> 100 µM,–,> 100 µM,–,> 100 µM,–,> 100 µM,–,> 100 µM,–,> 100 µM,–,> 100 µM,–,> 100,–,> 100 µM
O=C(OCc1ccc2ccccc2n1)c1cn(C2CC2)c2cc(N3CCN(Cc4ccc5ccccc5n4)CC3)c(F)cc2c1=O,58.2 µM,> 100 µM,49.6 µM,> 100 µM,> 80.7 µM,> 100 µM,46.1 µM,> 100 µM,41.6 µM,> 100 µM,33.2 µM,> 84.2 µM,> 94.3 µM,> 100 µM,51.5 µM,> 100 µM,12.9 µM,> 100,21.2 µM,58 µM
Nc1nc(OCc2ccccc2)c2[nH]cnc2n1,45.8 µM and 39.9 µM,400 µM and 175 µM,57 µM and 36.1 µM,288 µM and 151 µM,21.8 µM and 20.8 µM,71.9 µM and 160 µM and 60 µM,25 µM and 17.3 µM,128 µM and 90.7 µM,59.6 µM and 62 µM,400 µM and 307 µM,28 µM and 23.3 µM,264 µM and 136 µM,23.6 µM and 16.5 µM,135 µM and 69.4 µM,64.8 µM and 63 µM,400 µM and 492 µM,24.9 µM and 23.2 µM,205,30 µM and 31.4 µM,266 µM and 154 µM
CC(=O)OC12C=C(C)C(C(C)C1)C1C(=O)N(CCN3CCOCC3)C(=O)C12 (centres undefined),> 100 µM,> 100 µM,> 100 µM,> 100 µM,> 100 µM,> 100 µM,> 100 µM,> 100 µM,> 100 µM,> 100 µM,> 100 µM,> 100 µM,> 100 µM,> 100 µM,> 100 µM,> 100 µM,> 100 µM,> 100,> 100 µM,> 100 µM
O=C1OC(=O)C(=C\c2ccc3c(c2)OCO3)/C1=C/c1ccc2c(c1)OCO2,–,> 100 µM,–,> 100 µM,–,> 100 µM,–,> 100 µM,–,> 100 µM,–,> 100 µM,–,> 100 µM,–,> 100 µM,–,> 100,–,> 100 µM
O=C(/C=C\c1cccc([N+](=O)[O-])c1)/C=C/c1cccc([N+](=O)[O-])c1,1.4 µM,3.32 µM,3.03 µM,7.94 µM,20 µM,> 100 µM,14.8 µM,> 100 µM,1.73 µM,3.3 µM,37.9 µM,> 100 µM,2.79 µM,10.9 µM,5.25 µM,> 100 µM,> 100 µM,> 100,7.89 µM,> 100 µM
CN1CCN(C(=O)c2cc(-c3ccc4ncnc(N5CCc6cc(F)c(Cl)cc65)c4c3)cnc2N)CC1,0.216 µM,4.57 µM,0.446 µM,3.5 µM,0.382 µM,2.21 µM,0.177 µM,0.67 µM,0.312 µM,1.83 µM,0.123 µM,0.843 µM,0.346 µM,3.22 µM,0.29 µM,24.1 µM,0.0651 µM,1.84,0.264 µM,1.44 µM
CC(C)NCCCn1c(Sc2cc3c(cc2I)OCO3)nc2c(N)ncnc21,0.0381 µM,> 83.2 µM,0.0477 µM,10.8 µM,0.0451 µM,> 100 µM,0.368 µM,> 41 µM,0.0592 µM,0.755 µM,0.124 µM,2.12 µM,0.0588 µM,> 100 µM,0.156 µM,> 100 µM,0.155 µM,> 100,0.858 µM,> 68.4 µM
COC1C=COC2(C)Oc3c(C)c(O)c4c(c3C2=O)/C(=N/C2CCC(O)OC2C)C=C(NC(=O)/C(C)=C\C(=O)C2CC2C(O)C(C)C(O)C(C)C(OC(C)=O)C1C)C4=O (centres undefined),–,2.71 µM,–,3.38 µM,–,20.1 µM,–,4.3 µM,–,9.48 µM,–,3.36 µM,–,2.79 µM,–,3.89 µM,–,8.61,–,5.34 µM
COc1ccc(-c2cc(-c3ccc(C)cc3)nc3nc(=S)[nH]c(N)c23)cc1,19.1 µM,> 100 µM,26.8 µM,91.6 µM,40.4 µM,> 100 µM,20.6 µM,45.6 µM,16.2 µM,36 µM,26.7 µM,43.3 µM,19.3 µM,39 µM,21.5 µM,86.4 µM,14.8 µM,97.5,19.2 µM,38.9 µM
C[C@@H]1CN(Cc2ccc(F)cc2)[C@@H](C)CN1C(=O)c1cc2c(C(=O)C(=O)N(C)C)cn(C)c2cc1Cl,14 µM,36.3 µM,7.66 µM,25.4 µM,22.7 µM,> 79.6 µM,5.86 µM,23.9 µM,17.3 µM,37.4 µM,17.2 µM,37.7 µM,15.8 µM,43.4 µM,17.6 µM,48.8 µM,5.97 µM,65.6,14.9 µM,29.7 µM
COc1cc2c(cc1OCCCn1c(-c3ccccn3)nc3ccccc31)N=C[C@@H]1CCCN1C2=O,3.61 µM,> 79.6 µM,2.22 µM,4.9 µM,4.23 µM,19.6 µM,1.48 µM,3.04 µM,1.9 µM,4.1 µM,5.32 µM,11 µM,1.76 µM,6.81 µM,0.957 µM,–,2.14 µM,8.13,2.27 µM,4.98 µM
O=C(/C=C/c1ccccc1)CCN1CCOCC1,–,32.8 µM,–,20 µM,–,51.6 µM,–,31.1 µM,–,18.6 µM,–,36.4 µM,–,8.13 µM,–,38.5 µM,–,44,–,25 µM
CCCCCCCCCCCCCCCCCC1=NCCN1CCOC1=C(Cl)C(=O)c2ccccc2C1=O,2.58 µM,6.13 µM,1.67 µM,3.09 µM,1.93 µM,5.11 µM,2.12 µM,4.99 µM,1.91 µM,3.61 µM,1.95 µM,4.13 µM,1.79 µM,3.38 µM,1.95 µM,4.43 µM,1.86 µM,4.43,1.83 µM,3.78 µM
O=c1[nH]c(=O)n(C2CC(O)C(COP(=O)(OCc3ccc([N+](=O)[O-])o3)N(CCCCCl)CC(O)CO)O2)cc1F (centres undefined),1.66 µM,> 100 µM,> 22.5 µM,> 100 µM,> 100 µM,> 100 µM,0.138 µM,–,1.87 µM,> 100 µM,0.207 µM,> 29.9 µM,0.985 µM,77.4 µM,0.182 µM,> 100 µM,> 21.4 µM,> 100,< 0.0348 µM,–
CN=c1ccc2nc3ccc(N)cc3sc-2c1,8.44 µM,34.3 µM,2.57 µM,12.2 µM,5.03 µM,24.7 µM,2.61 µM,14 µM,2.07 µM,20.1 µM,1.09 µM,3.45 µM,1.33 µM,7.97 µM,1.45 µM,10.3 µM,1.69 µM,13.2,1.75 µM,5.86 µM
O=C(O)c1ccc(C(=O)c2ccccc2)c(C(=O)O)c1,–,> 100 µM,–,> 100 µM,–,> 100 µM,–,> 100 µM,–,> 100 µM,–,> 100 µM,–,> 100 µM,–,> 100 µM,–,> 100,–,> 100 µM
O=C1/C(=C/c2ccccc2[N+](=O)[O-])Cc2ccccc21,0.931 µM,3.15 µM,1.3 µM,2.57 µM,6.86 µM,38.4 µM,1.64 µM,3.38 µM,3.97 µM,15.7 µM,2.28 µM,5.71 µM,1.7 µM,3.13 µM,2.12 µM,5.4 µM,2.22 µM,> 100,2.15 µM,5.94 µM
CN[C@@H](C)C(=O)N[C@H](C(=O)N1CCC[C@H]1C(=O)Nc1sc(-c2ncco2)nc1-c1ccccc1)C1CCCCC1,28.6 µM,68.6 µM,18.7 µM,37.9 µM,0.0336 µM,0.299 µM,18.6 µM,39.2 µM,43.3 µM,> 100 µM,3.91 µM,19.4 µM,10.2 µM,28.1 µM,17.2 µM,42.7 µM,24.3 µM,82.4,0.957 µM,17.8 µM
OCC1OC(n2cnc3c(N/N=C\c4ccccn4)ncnc32)C(O)C1O (centres undefined),0.417 µM,> 100 µM,0.622 µM,> 100 µM,0.239 µM,2.97 µM,0.866 µM,4.05 µM,0.434 µM,> 100 µM,0.404 µM,6.19 µM,0.182 µM,> 100 µM,0.164 µM,53.7 µM,0.282 µM,21,0.318 µM,2.27 µM
O=C1NC(=O)C(N2C(=O)c3ccccc3C2=O)CC1O (centres undefined),> 100 µM,> 100 µM,> 100 µM,> 100 µM,> 100 µM,> 100 µM,> 100 µM,> 100 µM,> 100 µM,> 100 µM,> 100 µM,> 100 µM,> 100 µM,> 100 µM,> 100 µM,> 100 µM,> 100 µM,> 100,> 100 µM,> 100 µM
NC(=O)c1csc(C2OC(CO)C(O)C2O)n1 (centres undefined),45.9 µM,> 10000 µM,4.76 µM,> 31.6 µM and 6210 µM,79.9 µM,> 5120 µM,> 79.7 µM,4960 µM,70.8 µM,6070 µM,–,> 7980 µM,42.7 µM,678 µM,31.1 µM,1570 µM,–,> 5620,47.9 µM,3590 µM
O=C1OCC2=C1C(c1ccc(Cl)c(Cl)c1)c1cc3c(cc1N2CCO)OCCO3 (centres undefined),0.148 µM,0.502 µM,0.21 µM,1.14 µM,0.215 µM,2.32 µM,0.192 µM,10.8 µM,0.172 µM,7.58 µM,0.249 µM,25.8 µM,0.0852 µM,0.283 µM,0.389 µM,7.24 µM,0.282 µM,> 50,0.177 µM,1.74 µM
